# Data: publication PMC11272821, “Mechanistic safety assessment via multi-omic characterisation of systemic pathway perturbations following in vivo MAT2A inhibition” (Archives of Toxicology, 2024)
# Tested on: rat liver proteome
# Test: Liver label-free quantitative proteomics
# Type: in vivo
# Conditions: liver protein
# Experimental: Liver tissue were homogenized in PreOmics iST buffer (PreOmics) using a bead ruptor. […] Peptides were purified using PreOmics iST cartridges and vacuum-centrifuged to dryness. Peptides were subsequently reconstituted in 2 vol% ACN and 0.1 vol% formic acid for single-run LC–MS analysis. Peptides were analyzed using a Thermo EASY-nLC1200 coupled online to an Exploris 480 Mass Spectrometer equipped with a Nanospray Flex Ion Source integrated with a column oven (PRSO-V1, Sonation) and a FAIMS unit. Peptides were separated using a nonlinear gradient and analyzed by acquiring spectra through Data Independent Acquisition (DIA). Data was analyzed using Spectronaut V15.7.2 (Biognosys AG) direct DIA analysis using an isoform Rat database (UniProt downloaded 22.02.2021) consisting of 9,746 protein entries utilizing the Pulsar search engine. Analysis settings were maintained to factory settings and identification was set to 1% false discovery rate (FDR) for precursor and protein level. Additional information is provided in Supplementary M&M.
# Data analysis was performed using R Statistical Software (version 4.3.0). Proteomics, transcriptomics and metabolomics expression changes were visualised using heatmaps showing log2 fold change relative to control. In the heatmaps missing values were highlighted in grey.
# Proteomics Analysis. Liver tissue was placed in vials containing 1.4 mm zirconia beads and taken up in 500 µL of PreOmics iST buffer (PreOmics). In a cold room set to 4 °C, tissues were homogenized utilizing a bead Ruptor 12 by shaking for 30 seconds for a total of 5 times using ‘high’ setting. Lysate was normalized using BCA assay (Thermo Fisher Scientific), and subsequently incubated at 95 °C for 10 min for reduction, and alkylation of proteins. A total of 50 μg from each sample was subjected to enzymatic cleavage for 3 h by adding equal amounts of endoproteinase Lys-C and trypsin (ThermoFisher Scientific, # A40009) in a 1:50 (wt/wt) enzyme:protein ratio. De-salting and purification were performed according to the PreOmics iST protocol on a styrene divinylbenzene reversed-phase sulfonate sorbent. Purified peptides were vacuum-centrifuged to dryness and reconstituted in double-distilled water with 2 vol% ACN and 0.1 vol% formic acid (FA) for single-run LC-MS analysis.
# Peptides were loaded onto a ReproSil-Pur 120 C18AQ 1.9 µm in-house packed to a 5 µm tip 75u ID × 360u × 50 cm column using Thermo EASY-nLC 1200 coupled online to an Exploris 480 Mass Spectrometer equipped with a Nanospray Flex Ion Source integrated with a column oven (PRSO-V1, Sonation) maintained at 50 °C. Peptides were separated using a nonlinear gradient: Mobile phase A was 0.1 vol% FA and 3 vol% acetonitrile (ACN) in water, Mobile phase B was 90 vol% ACN and 0.1 vol % FA. The gradient was operated at 250 nL/min flowing 3 vol% B for 3 min, 3 to 5 vol% B over 3 min, 5 to 17 vol % B over 120 min, 17 to 24 vol % B over 26 min, 24 to 30 vol% B over 14 min, 30 to 85 vol% B over 3 min.
compound,measurement,setting,value
Cn1cc2cc(-c3cc4[nH]nc(C5CC5)c4n(-c4ccc(OC(F)F)cc4)c3=O)ccc2n1 [AZ’9567],Ncl Log2FC,3mg/kg,0.6
same,Nob1 Log2FC,3mg/kg,0.9
same,Orm1 Log2FC,3mg/kg,1.1
same,Paics Log2FC,3mg/kg,0.7
same,Pcyt1a Log2FC,3mg/kg,0.7
same,Pklr.1 Log2FC,3mg/kg,-1
same,Prmt1 Log2FC,3mg/kg,0.6
same,Pspc1 Log2FC,3mg/kg,0.5
same,Ptprs Log2FC,3mg/kg,-0.9
same,Pum3 Log2FC,3mg/kg,0.7
same,Rbm3 Log2FC,3mg/kg,0.9
same,Rgn Log2FC,3mg/kg,-0.7
same,Rmdn1 Log2FC,3mg/kg,0.6
same,S1pr1 Log2FC,3mg/kg,-0.7
same,Scd1 Log2FC,3mg/kg,-2.8
same,Sh3glb1 Log2FC,3mg/kg,0.7
same,Sirt2 Log2FC,3mg/kg,0.7
same,Sts Log2FC,3mg/kg,-0.7
same,Tat Log2FC,3mg/kg,-1.5
same,Tceanc2 Log2FC,3mg/kg,1.2
same,Thg1l Log2FC,3mg/kg,0.5
same,Tpmt Log2FC,3mg/kg,-1.3
same,Tspo Log2FC,3mg/kg,1.7
same,Txnrd2 Log2FC,3mg/kg,-0.8
same,Ube2f Log2FC,3mg/kg,0.7
same,Ugt2b1 Log2FC,3mg/kg,-1.6
same,Wdr45 Log2FC,3mg/kg,-0.8
same,Ythdc1 Log2FC,3mg/kg,0.7
same,mvd Log2FC,3mg/kg,0.7
same,A2m Log2FC,10mg/kg,3.3
same,Abcb1 Log2FC,10mg/kg,1.6
same,Abhd1 Log2FC,10mg/kg,-0.9
same,Acaca Log2FC,10mg/kg,-1.2
same,Acbd4 Log2FC,10mg/kg,-1.3
same,Acly Log2FC,10mg/kg,-0.6
same,Acsl1 Log2FC,10mg/kg,-0.7
same,Acsl3 Log2FC,10mg/kg,-0.6
same,Acsl5 Log2FC,10mg/kg,-0.6
same,Akap5 Log2FC,10mg/kg,-1.6
same,Aldh1a1 Log2FC,10mg/kg,1.5
same,Aldh1a7 Log2FC,10mg/kg,1.4
same,Aldh16a1 Log2FC,10mg/kg,-0.5
same,Alpl Log2FC,10mg/kg,1.6
same,Als2 Log2FC,10mg/kg,-0.9
same,Anpep Log2FC,10mg/kg,1.3
same,Aox1 Log2FC,10mg/kg,-1.3
same,Apeh Log2FC,10mg/kg,-0.7
same,Apoc1 Log2FC,10mg/kg,-0.9
same,Aqp8 Log2FC,10mg/kg,0.9
same,Asns Log2FC,10mg/kg,0.9
same,Baat Log2FC,10mg/kg,-1.1
same,Banf1 Log2FC,10mg/kg,0.7
same,Bhmt2 Log2FC,10mg/kg,1.3
same,Bhmt Log2FC,10mg/kg,1.7
same,Brix1 Log2FC,10mg/kg,0.9
same,Ca5a Log2FC,10mg/kg,0.7
same,Carnmt1 Log2FC,10mg/kg,-1.5
same,Cbs Log2FC,10mg/kg,-3.1
same,Ccnd1 Log2FC,10mg/kg,17.1
same,Cdh1 Log2FC,10mg/kg,0.7
same,Cdo1 Log2FC,10mg/kg,-5.2
same,Ces2c Log2FC,10mg/kg,1.2
same,Cfdp1 Log2FC,10mg/kg,0.5
same,Chid1 Log2FC,10mg/kg,1.0
same,Comt Log2FC,10mg/kg,-0.6
same,Coq4 Log2FC,10mg/kg,0.6
same,Csad Log2FC,10mg/kg,-1.3
same,Ctbs Log2FC,10mg/kg,-0.7
same,Cyp2c23 Log2FC,10mg/kg,-1.1
same,Cyp4a10 Log2FC,10mg/kg,0.7
same,Dbnl Log2FC,10mg/kg,0.5
same,Dcakd Log2FC,10mg/kg,1.3
same,Dkc1 Log2FC,10mg/kg,0.6
same,Dmgdh Log2FC,10mg/kg,0.5
same,Dohh Log2FC,10mg/kg,0.9
same,Eif4ebp1 Log2FC,10mg/kg,0.8
same,Enpep Log2FC,10mg/kg,-0.8
same,Fabp4 Log2FC,10mg/kg,1.1
same,Fdft1 Log2FC,10mg/kg,0.7
same,Fgr Log2FC,10mg/kg,1.6
same,Gimd1 Log2FC,10mg/kg,-0.9
same,Gmpr Log2FC,10mg/kg,0.7
same,Gnl3 Log2FC,10mg/kg,0.9
same,Gnmt Log2FC,10mg/kg,1.3
same,Gpcpd1 Log2FC,10mg/kg,1.4
same,Gstm1 Log2FC,10mg/kg,-0.7
same,Gstm2 Log2FC,10mg/kg,-1.0
same,Gtpbp4 Log2FC,10mg/kg,0.8
